Reference: patent US20030100549A1, “Inhibitors of c-Jun N-terminal kinases (JNK)” (priority 1999, published 2003)

target: T1, activated JNK3 (Homo sapiens, UniProt P53779); assay: JNK3 inhibition, spectrophotometric coupled-enzyme assay; format: biochemical; settings: activated JNK3 10 nM, 10 μM ATP, 200 μM EGF receptor peptide, 30° C.
T1 construct: One such construct encodes amino acid residues Ser40-Glu402 of JNK3α1 and is preceded by Met and Gly residues; Met-Gly (initiator Met plus Gly added for the NcoI site) (N); made in house; host or cells: E. coli BL21 (DE3)
Description: A BLAST search of the EST database using the published JNK3α1 cDNA as a query identified an EST clone (#632588) that contained the entire coding sequence for human JNK3α1. Polymerase chain reactions (PCR) using pfu polymerase (Strategene) were used to introduce restriction sites into the cDNA for cloning into the pET-15B expression vector at the NcoI and BamHI sites. The protein was expressed in E. coli. Due to the poor solubility of the expressed full-length protein (Met 1-Gln 422), an N-terminally truncated protein starting at Ser residue at position 40 (Ser 40) was produced. This truncation corresponds to Ser 2 of JNK1 and JNK2 proteins, and is preceded by a methionine (initiation) and a glycine residue. The glycine residue was added in order to introduce an NcoI site for cloning into the expression vector. In addition, systematic C-terminal truncations were performed by PCR to identify a construct that give rise to diffraction-quality crystals. One such construct encodes amino acid residues Ser40-Glu402 of JNK3α1 and is preceded by Met and Gly residues.
5 mg of JNK3 was diluted to 0.5 mg/ml in 50 mM HEPES buffer, pH 7.5, containing 100 mM NaCl, 5 mM DTT, 20 mM MgCl2 and 1 mM ATP. GST-MKK7(DD) was added at a molar ratio of 1:2.5 GST-MKK7:JNK3. After incubation for 30 minutes at 25° C., the reaction mixture was concentrated 5-fold by ultrafiltration in a Centriprep-30 (Amicon, Beverly, Mass.), diluted to 10 ml and an additional 1 mM ATP added. This procedure was repeated three times to remove ADP and replenish ATP. The final addition of ATP was 5 mM and the mixture incubated overnight at 4° C.
The activated JNK3/GST-MKK7(DD) reaction mixture was exchanged into 50 mM HEPES buffer, pH 7.5, containing 5 mM DTT and 5% glycerol (w/v) by dialysis or ultrafiltration. The reaction mixture was adjusted to 1.1 M potassium phosphate, pH 7.5, and purified by hydrophobic interaction chromatography (at 25° C.) using a Rainin Hydropore column. […] Activated JNK3 (i.e. doubly phosphorylated JNK3) was stored at −70° C. at 0.25-1 mg/ml.
Compounds were assayed for the inhibition of JNK3 by a spectrophotometric coupled-enzyme assay. In this assay, a fixed concentration of activated JNK3 (10 nM) was incubated with various concentrations of a potential inhibitor dissolved in DMSO for 10 minutes at 30° C. in a buffer containing 0.1 M HEPES buffer, pH 7.5, containing 10 mM MgCl2, 2.5 mM phosphoenolpyruvate, 200 μM NADH, 150 μg/mL pyruvate kinase, 50 μg/mL lactate dehydrogenase, and 200 μM EGF receptor peptide. The EGF receptor peptide has the sequence […], and is a phosphoryl acceptor in the JNK3-catalyzed kinase reaction. The reaction was initiated by the addition of 10 μM ATP and the assay plate is inserted into the spectrophotometer's assay plate compartment that was maintained at 30° C. The decrease of absorbance at 340 nm was monitored as a function of time. The rate data as a function of inhibitor concentration was fitted to competitive inhibition kinetic model to determine the Ki.

T1 sequence (P53779 40-402): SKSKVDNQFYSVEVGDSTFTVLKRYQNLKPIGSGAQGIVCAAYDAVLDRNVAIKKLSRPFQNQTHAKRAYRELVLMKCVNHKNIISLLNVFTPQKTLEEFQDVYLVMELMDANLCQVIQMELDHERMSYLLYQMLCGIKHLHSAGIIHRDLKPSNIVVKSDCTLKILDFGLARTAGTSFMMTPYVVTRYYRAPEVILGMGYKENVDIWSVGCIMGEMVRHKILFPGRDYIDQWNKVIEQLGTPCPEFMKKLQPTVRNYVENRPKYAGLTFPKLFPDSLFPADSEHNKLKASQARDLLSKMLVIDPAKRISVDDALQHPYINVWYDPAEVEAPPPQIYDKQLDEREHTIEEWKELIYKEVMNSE

Ki [µM] | SMILES
≥ 1 | Cc1cccc(NC(=O)c2c(Nc3ccccc3C)[nH]c(=O)[nH]c2=O)c1 [Cmpd 7]
≥ 1 | Cc1ccccc1Nc1[nH]c(=O)[nH]c(=O)c1C(=O)Nc1ccccc1 [Cmpd 5]
≥ 1 | Cc1ccccc1Nc1[nH]c(=O)[nH]c(=O)c1C(=O)Nc1ccc(F)cc1 [Cmpd 6]
≥ 1 | Cc1cccc(NC(=O)c2c(Nc3ccccc3)[nH]c(=O)[nH]c2=O)c1 [Cmpd 4]
≥ 1 | Cc1cccc(NC(=O)c2c(Nc3ccc(F)cc3)[nH]c(=O)[nH]c2=O)c1 [Cmpd 10]

Second part, the compound before the results:

SMILES | Ki [µM]
O=C(Nc1ccc(F)cc1)c1c(Nc2ccc(F)cc2)[nH]c(=O)[nH]c1=O [Cmpd 9] | ≥ 1
O=C(Nc1ccccc1)c1c(Nc2ccccc2)[nH]c(=O)[nH]c1=O [Cmpd 1] | < 1
O=C(Nc1ccccn1)c1c(Nc2ccccc2)[nH]c(=O)[nH]c1=O [Cmpd 2, 2,4-Dioxo-6-phenylamino-1,2,3,4-tetrahydro-pyrimidine-5-carboxylic acid pyridin-2-ylamide] | ≥ 1
O=C(Nc1ccccc1)c1c(Nc2ccc(F)cc2)[nH]c(=O)[nH]c1=O [Cmpd 8] | ≥ 1
O=C(Nc1ccc(F)cc1)c1c(Nc2ccccc2)[nH]c(=O)[nH]c1=O [Cmpd 3, 2,4-dioxo-6-phenylamino-1,2,3,4-tetrahydro-pyrimidine-5-carboxylic acid (4-fluoro-phenyl)-amide] | ≥ 1
